This passage reports EC50 results from patent publication US7202261B2, “Calcilytic compounds” (NPS Pharmaceuticals, Inc., priority 1996, dated 2007).

Molecules are shown by their SMILES. Counter-ions that a name gives are not always drawn.

The subject of the experiment is dissociated bovine parathyroid cells. Kind of experiment: Stimulation of PTH secretion. The format is cell-based. Conditions: Bos taurus, 0.5 h, 0.5 mM Ca2+, 30 minutes. Here is the method:
This example illustrates the ability of different calcilytic compounds to exert a biological effect on PTH secretion. PTH secretion was determined using dissociated bovine parathyroid cells as described below for Compounds 32, 33, and 38. […] Stimulation of PTH secretion was assayed as follows: Parathyroid cell buffer (PCB) contains (mM): NaCl, 126; KCl, 4; MgSO4, 1; K2HPO4/KH2PO4, 0.7; Na-Hepes, pH 7.45, and variable amounts of CaCl2 as specified (reagent grade). PCB was typically supplemented with bovine serum albumin (BSA fraction V; ICN Biomedicals, Inc., Costa Mesa, Calif.; catalog #81-003) and 1 mg/mL of D-glucose (reagent grade) as indicated. Percoll purification buffer was prepared immediately before use by mixing 8 mL of Percoll (Pharmacia LKB, Alameda, Calif.; catalog #17-0891-01) and 7 mL of a twice-concentrated PCB solution without phosphate and containing 2 mM CaCl2. Parathyroid glands were obtained from calves within minutes of slaughter at an abattoir and shipped via overnight express on ice in PCB containing 1.25 mM CaCl2. The glands were trimmed and minced in ice-cold PCB containing 1.25 mM CaCl2, 1 mg/mL of D-glucose, and 2% BSA. […]

With `COc1ccc(CC(C)(C)NCC(O)COc2cccc(OC)c2)cc1` (centres unmarked) [Compound 38, N-[2-Hydroxy-3-(3-methoxyphenoxy)propyl]-1,1-dimethyl-2-(4-methoxyphenyl)ethylamine Hydrochloride], the EC50 (as a rule, the concentration at which the effect is half-maximal) is less than 10 µM. On to `COc1ccc(CC(C)(C)NC[C@@H](O)COc2ccccc2)cc1` (single isomer, unassigned) [Compound 32, (R) or (S)—N-(2-Hydroxy-3-phenoxypropyl)-1,1-dimethyl-2-(4-methoxyphenyl)ethylamine Hydrochloride], for which the EC50 was less than 10 µM.
